{
  "source": "patent US6497896B2",
  "about": "“Method for administering camptothecins via injection of a pharmaceutical composition comprising microdroplets containing a camptothecin” (priority 2001, dated 2002)",
  "key": {"[1]": {"test_system": "A375 human melanoma xenograft", "settings": "for survivors (FIG. 10 comparison): I.P.", "source_text": "The following study evaluates two intravenous formulations according to the present invention against human tumor xenografts in athymic nude mice. […] Examples 1 and 2 describe the compositions of IDD-P (FIG. 1; formulation 1-F) and IDD-D respectively.\nHusbandry: Female nude mice were 16 weeks of age (NCR-nufBr; Taconic Farms) for the A375 study. The mice were fed ad libitum water (reverse osmosis, 1 ppm C1) and autoclaved Prolab NIH-31 M/5% Rodent Diet consisting of 18% protein, 5% fat, 6% fiber, and 8% ash. Mice were housed in static microisolators on a 12-hour light cycle at 21-22° C. (70-72° F.) and 40%-60% humidity. The animal care and use program is AAALAC International accredited and specifically follows and complies with the recommendation of the National Research Council's Guidefor the Care and Use of Laboratory Animals.\nTumor Implantation: An A375 melanoma fragment (1 mm 3) was implanted subcutaneously in the flank of each nude mouse. When the tumors reached the 60-112 mg size range, the mice were sorted into treatment groups (on Day 1) such that the group mean tumor sizes ranged from 71.3 mg-72.5 mg. Estimated tumor weight was calculated using the formula: [formula]\nCAMPTOSAR®, DTIC®, and HYCAMTIN® were obtained as the marketed drugs and solutions were prepared fresh on the day of dosing. CAMPTOSAR® (irinotecan, Phannacia & Upjohn Company, 20 mg/ml) and DTIC® (dacarbazine, Bayer Corporation, 20 mg/ml) were diluted with D5W. HYCAMTIN® (topotecan, SmithKlein Beecham) was reconstituted with water at 1 mg/ml.\nTreatments: Volumes of 0.20 ml per 20-g mouse, body-weight adjusted, were administered once daily. Tumor-bearing athymic nude mice were matched on Day 1 into 13 groups of ten animals and drug administration was initiated. […] Three reference drugs were administered I.P.: CAMPTOSAR® was given in three doses at weekly intervals (qwk×3); HYCAMTIN® was given in four doses at four-day intervals (q4d×4); and DTIC® was given in five consecutive daily doses (qd×5). The tumor growth control group for these reference treatments received no treatment (Group 1).\nTumor Growth Endpoint: The tumor growth delay (TGD) method was used to assess efficacy. Tumor dimensions were measured twice weekly until the experiment was terminated on Day 62. Each animal was euthanized as a “cancer death” when its A375 melanoma reached a size of 2.0 g. Mean Day of Survival (MDS) values for all groups were based on the calculated day of death of each mouse, which is given by the formula: [formula]\nTGD values, which represent treatment-effected extensions of survival time, were calculated from MDStreated−MDScontrol, the difference in MDS value for a given treatment group and the MDS value for A375 melanoma-bearing mice that received no treatment or the corresponding vehicle.\nAt the termination of the experiment on Day 62, treatment responses in survivors were classified as either complete tumor regression (CR), partial tumor regression (PR), or stable/progressive disease (SD/PD). A CR response indicates the absence of measurable tumor. In a PR response, the final tumor weight is lower than on Day 1 but larger than 0 mg. In a SD/PD response, mice survived to Day 62 with a progressively growing or stable tumor size that had not reached the 2.0-g endpoint.\nEvaluation of Toxicity: The maximum tolerated dose (MTD), as defined by the NCI, is the highest dose at which no more than 10% of the animals die and the group mean body-weight loss is no more than 20%. Body weights were measured daily for four or five days and then twice weekly thereafter until the experiments were terminated on Day 62 of the study. The animals were also examined frequently for clinical signs of any adverse, drug-related side effects. Because mice are not tagged for MTD studies, only the mean group body weights recorded in the appended raw data are significant in those studies."}, "[2]": {"settings": "human plasma, pH 7.4, 37° C.; cited from earlier work"}, "[3]": {"settings": "whole blood; cited from earlier work"}, "[4]": {"molecular_target": "human serum albumin (HSA) (Homo sapiens, UniProt P02768)", "sequence (P02768 25-609)": "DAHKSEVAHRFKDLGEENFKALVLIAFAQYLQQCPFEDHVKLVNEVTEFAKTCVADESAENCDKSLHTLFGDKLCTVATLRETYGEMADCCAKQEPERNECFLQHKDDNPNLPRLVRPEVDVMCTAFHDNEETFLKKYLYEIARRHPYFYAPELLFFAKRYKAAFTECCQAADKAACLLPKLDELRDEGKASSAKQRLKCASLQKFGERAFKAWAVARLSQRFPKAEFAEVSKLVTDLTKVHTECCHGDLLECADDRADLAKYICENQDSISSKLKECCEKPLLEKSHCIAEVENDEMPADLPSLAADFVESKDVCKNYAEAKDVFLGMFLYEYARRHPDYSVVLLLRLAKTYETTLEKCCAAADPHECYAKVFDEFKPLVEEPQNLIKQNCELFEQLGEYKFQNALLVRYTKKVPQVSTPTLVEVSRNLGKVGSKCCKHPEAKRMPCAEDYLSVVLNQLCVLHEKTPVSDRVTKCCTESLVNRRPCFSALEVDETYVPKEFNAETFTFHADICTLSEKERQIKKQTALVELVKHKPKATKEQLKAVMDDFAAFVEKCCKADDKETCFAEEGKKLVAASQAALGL", "settings": "PBS at pH 7.4; cited from earlier work"}, "[5]": {"settings": "cited from earlier work"}, "[6]": {"settings": "in 3% DMA 2.0 mg/kg p.o., q3d×4"}, "[7]": {"settings": "in 3% DMA 4.0 mg/kg p.o., q3d×4"}},
  "note": "Read-outs that look alike come from different tables or passages of the source.",
  "data": [
    {"smiles": "CCc1c2c(nc3ccc(OC(=O)N4CCC(N5CCCCC5)CC4)cc13)-c1cc3c(c(=O)n1C2)COC(=O)[C@]3(O)CC", "note": "[CAMPTOSAR®, irinotecan]", "values": [
      {"measurement": "62-day survivors (number of 10 mice)", "setting": "[1]; 100 mg/kg I.P., qwk×3", "result": "one"},
      {"measurement": "mean day of survival (MDS)", "setting": "[1]; 100 mg/kg I.P., qwk×3, Group 5 (n=9)", "result": 47.3, "unit": "days"},
      {"measurement": "tumor growth delay (TGD)", "setting": "[1]; 100 mg/kg I.P., qwk×3, vs untreated Group 1", "result": 17, "unit": "days"},
      {"measurement": "survivors (FIG. 10 comparison)", "setting": "[1]; optimal regimen (100 mg/kg qwk×3)", "result": 0, "unit": "%"}
    ]},
    {"smiles": "CC[C@@]1(O)C(=O)OCc2c1cc1n(c2=O)Cc2cc3ccccc3nc2-1", "note": "[camptothecin, 20(S)-camptothecin]", "values": [
      {"measurement": "% α-hydroxy lactone at equilibrium", "setting": "[2]", "result": 0.2, "unit": "%"},
      {"measurement": "half-life of lactone ring opening", "setting": "[2]", "result": 11, "unit": "min"},
      {"measurement": "equilibrium α-hydroxy lactone concentration", "setting": "[3]", "result": 5.3, "unit": "%"},
      {"measurement": "half-life of lactone", "setting": "[3]", "result": 22, "unit": "min"},
      {"measurement": "affinity of HSA for carboxylate form versus α-hydroxy lactone form", "setting": "[4]", "result": 150, "unit": "fold"}
    ]},
    {"smiles": "CC[C@@]1(O)C(=O)OCc2c1cc1n(c2=O)Cc2cc3c([N+](=O)[O-])cccc3nc2-1", "note": "[9-nitro-camptothecin, 9-nitro-20(S)-camptothecin]", "values": [
      {"measurement": "CR responses, share of mice", "setting": "[1]; 2 mg/kg p.o., q3d×4", "result": 40, "unit": "%"},
      {"measurement": "CR responses, share of mice", "setting": "[1]; 4 mg/kg p.o., q3d×4", "result": 40, "unit": "%"},
      {"measurement": "62-day survival rate", "setting": "[1]; [6]", "result": 70, "unit": "%"},
      {"measurement": "62-day survivors (number of 10 mice)", "setting": "[1]; [6]", "result": "seven"},
      {"measurement": "CR responses on Day 62", "setting": "[1]; [6]", "result": 4},
      {"measurement": "PR responses on Day 62", "setting": "[1]; [6]", "result": 1},
      {"measurement": "SD/PD responses on Day 62", "setting": "[1]; [6]", "result": 2},
      {"measurement": "tolerability", "setting": "[1]; [6]", "result": "well tolerated"},
      {"measurement": "mean day of survival (MDS)", "setting": "[1]; in 3% DMA 2.0 mg/kg p.o., q3d×4, Group 13 (n=3)", "result": 47.6, "unit": "days"},
      {"measurement": "tumor growth delay (TGD)", "setting": "[1]; in 3% DMA 2.0 mg/kg p.o., q3d×4, vs vehicle control Group 4", "result": 21.6, "unit": "days"},
      {"measurement": "62-day survival rate", "setting": "[1]; [7]", "result": 70, "unit": "%"},
      {"measurement": "62-day survivors (number of 10 mice)", "setting": "[1]; [7]", "result": "seven"},
      {"measurement": "CR responses on Day 62", "setting": "[1]; [7]", "result": 4},
      {"measurement": "SD/PD responses on Day 62", "setting": "[1]; [7]", "result": 3},
      {"measurement": "tolerability", "setting": "[1]; [7]", "result": "well tolerated"},
      {"measurement": "mean day of survival (MDS)", "setting": "[1]; in 3% DMA 4.0 mg/kg p.o., q3d×4, Group 12 (n=3)", "result": 45.3, "unit": "days"},
      {"measurement": "tumor growth delay (TGD)", "setting": "[1]; in 3% DMA 4.0 mg/kg p.o., q3d×4, vs vehicle control Group 4", "result": 19.3, "unit": "days"}
    ]},
    {"smiles": "CC[C@@](O)(C(=O)[O-])c1cc2n(c(=O)c1CO)Cc1cc3ccccc3nc1-2.[Na+]", "note": "[Sodium camptothecin]", "values": [
      {"measurement": "side effects", "setting": "[5]; administered via i.v.", "result": "unpredictable side effects such as myelosuppression and hemorrhagic cystitis"},
      {"measurement": "antitumor activity in clinical trials", "setting": "[5]; solubilized by sodium hydroxide in water, early 70's", "result": "antitumor activity"}
    ]},
    {"smiles": "CN(C)/N=N/c1[nH]cnc1C(N)=O", "note": "[DTIC®, dacarbazine]", "values": [
      {"measurement": "mean day of survival (MDS)", "setting": "[1]; 150 mg/kg I.P., qd×5, Group 7 (n=8)", "result": 37.6, "unit": "days"},
      {"measurement": "tumor growth delay (TGD)", "setting": "[1]; 150 mg/kg I.P., qd×5, vs untreated Group 1, not statistically significant", "result": 7.3, "unit": "days"},
      {"measurement": "survivors (FIG. 10 comparison)", "setting": "[1]; optimal regimen (150 mg/kg qd×5)", "result": 10, "unit": "%"}
    ]},
    {"smiles": "CC[C@@]1(O)C(=O)OCc2c1cc1n(c2=O)Cc2cc3c(CN(C)C)c(O)ccc3nc2-1", "note": "[HYCAMTIN®, topotecan]", "values": [
      {"measurement": "62-day survivors (number of 10 mice)", "setting": "[1]; 10 mg/kg I.P., q4d×4", "result": "one"},
      {"measurement": "mean day of survival (MDS)", "setting": "[1]; 10 mg/kg I.P., q4d×4, Group 6 (n=9)", "result": 46.7, "unit": "days"},
      {"measurement": "tumor growth delay (TGD)", "setting": "[1]; 10 mg/kg I.P., q4d×4, vs untreated Group 1", "result": 16.4, "unit": "days"},
      {"measurement": "survivors (FIG. 10 comparison)", "setting": "[1]; optimal regimen (10 mg/kg q4d×4)", "result": 0, "unit": "%"}
    ]}
  ]
}
